Reference: patent US5188950A, “Method of preparing HIV protease inhibitors” (Merck & Co., Inc., priority 1992, dated 1993)
Several values for one entry are separate records, joined by “and”; a condition that tells them apart may be missing. Identical values can stand only once.

What was measured:
[1] = biological target: T1, HIV protease (Human immunodeficiency virus type 1 group M subtype B, UniProt P12497); assay: Inhibition of microbial expressed viral protease (peptide substrate cleavage, HPLC of products); assay type: biochemical; conditions: estimated activities; compounds as isolated from rat liver slices; pH 5.5, 2 hours at 36° C., 283 pM protease
T1 construct: the protease expressed in Escherichia coli; made in house; host or cells: Escherichia coli
Protocol: Inhibition studies of the reaction of the protease expressed in Escherichia coli with a peptide substrate [Val-Ser-Gln-Asn-(betanapthyl)Ala-Pro-Ile-Val, 0.665 mg/mL at the time the reaction is initiated] were carried out. Aliquots of 40 μl of substrate in substrate buffer (60 mM Na acetate, pH 5.5, in 0.117% BSA) were combined with 10 μl aliquots of various concentrations of inhibitor. The reaction was initiated by the addition of 10 μl of 1.7 nM protease in a solution of 0.05M Na acetate, pH 5.5, in 10% glycerol, 1 mM DTT, 1 mM EDTA, and 64 μM octoxynol-9.5 to yield a final concentration of 283 pM protease. Incubation proceeded for 2 hours at 36° C. The reaction was quenched with 75 ul of 5% phosphoric acid. Products of the reaction were separated by HPLC. The extent of inhibition of the reaction was determined from the peak heights of the products.

[2] = Biotransformation of L-689,502 by rat liver slices; assay type: in vitro ADME; conditions: for metabolite share of the total metabolites: rat liver slices incubated with L-689,502, pH 7.4, 37° C., % of the total metabolites
Protocol: L-689,502 (5.65 μmole) was incubated at pH 7.4, 37° C., with rat liver slices (1 cm wide, 200-300μ 3.7 g) in 100 ml of Williams' Medium E (composition described in Sigma commercial circular, pages 1-5, herein incorporated by reference for this purpose). A gradual increase in the metabolites in an organic extract of the medium was observed over a period of 5 hours when ~31% of .he drug was metabolized. Three of the major metabolites M1 (6.1% of the total metabolites) and M2 (6.3%) and M4 (12.1%) were characterized by ^1 H-NMR and FAB/Mass spectroscopies. Exact mass measurements, by high resolution FAB/MS, for M1 and M2 gave a molecular ion at m/z 690.375305, which computed to an empirical formula of C39 H52 N3 O8 for the protonated form. The M4 peak was also matched with a synthetic standard by HPLC, MS and NMR.

[3] = Biotransformation of L-689,502 by dog liver slices; assay type: in vitro ADME; conditions: dog liver slices incubated with L-689,502; for metabolite share of the total metabolites: % of the total metabolites

Structure (SMILES) | IC50 [1] | metabolised at 5 h, 56.5 µM ([2]; over 5 hours, pH 7.4, 37° C., rat liver slices, 5.65 μmole in 100 ml Williams' Medium E, read-out: drug metabolized) | metabolite share of the total metabolites [2] | metabolite share of the total metabolites [3] | amount of metabolite peak (in words) ([3]; HPLC)
CC(C)(C)OC(=O)N[C@@H](Cc1ccccc1)[C@@H](O)C[C@@H](Cc1ccc(OCCN2CCOCC2)cc1)C(=O)N[C@H]1c2ccccc2C[C@H]1O [L-689,502, N-(cis-2(R)-hydroxy-1(S)-indanyl)-5(S)-(1,1-dimethylethoxycarbonylamino)-4(S)-hydroxy-6-phenyl-2(R)-[(4-(2-(4-morpholinyl)ethoxy)phenyl)methyl]-hexanamide] | 0.93 nM and 0.95 nM | ~31% |  |  | 
CC(C)(C)OC(=O)N[C@@H](Cc1ccccc1)[C@@H](O)C[C@@H](Cc1ccc(OCCN2CCOCC2)cc1)C(=O)N[C@H]1c2ccccc2[C@H](O)[C@H]1O [M1] | 2.7 nM |  | 6.1% | 13.1% | 
CC(C)(C)OC(=O)N[C@@H](Cc1ccccc1)[C@@H](O)C[C@@H](Cc1ccc(OCCN2CCOCC2)cc1)C(=O)N[C@H]1c2cccc(O)c2C[C@H]1O [M2] | 1.3 nM |  | 6.3% | 1.6% | 
CC(C)(C)OC(=O)N[C@@H](Cc1ccccc1)[C@@H](O)C[C@@H](Cc1ccc(OCCN2CCOCC2=O)cc1)C(=O)N[C@H]1c2ccccc2C[C@H]1O [M4] | ~0.5 nM |  | 12.1% |  | a small amount
